The record followed here is US20080161246A1, “Cytochrome P450 Oxidase Inhibitors and Uses Thereof” (ABBOTT LABORATORIES, priority 2006, published 2008).

The target of the data set is T1, human microsomes containing CYP3A4 (Homo sapiens, UniProt P08684).
T1 construct: human microsomes containing CYP3A4; from tissue
As to the kind of experiment: Protection of lopinavir from metabolism by human microsomes containing CYP3A4. The data set is classed as biochemical. The note with it: unmetabolized lopinavir after incubation with human microsomes containing CYP3A4; for % LPV Remaining (0.4 μM): compound at 0.4 μM; for % LPV Remaining (4 μM): compound at 4 μM. The method, then:
The pharmacokinetics boosting effects of the compounds of the present invention were evaluated by measuring the compounds' protective effects on the metabolism of lopinavir, an HIV protease inhibitor. Lopinavir were mixed with human microsomes containing CYP3A4 in the presence of a compound of the invention. […] Significant pharmacokinetics boosting effects were also observed for some compounds at 0.4 μM (“% LPV Remaining (0.4 μM)”).

T1 sequence (P08684 whole entry): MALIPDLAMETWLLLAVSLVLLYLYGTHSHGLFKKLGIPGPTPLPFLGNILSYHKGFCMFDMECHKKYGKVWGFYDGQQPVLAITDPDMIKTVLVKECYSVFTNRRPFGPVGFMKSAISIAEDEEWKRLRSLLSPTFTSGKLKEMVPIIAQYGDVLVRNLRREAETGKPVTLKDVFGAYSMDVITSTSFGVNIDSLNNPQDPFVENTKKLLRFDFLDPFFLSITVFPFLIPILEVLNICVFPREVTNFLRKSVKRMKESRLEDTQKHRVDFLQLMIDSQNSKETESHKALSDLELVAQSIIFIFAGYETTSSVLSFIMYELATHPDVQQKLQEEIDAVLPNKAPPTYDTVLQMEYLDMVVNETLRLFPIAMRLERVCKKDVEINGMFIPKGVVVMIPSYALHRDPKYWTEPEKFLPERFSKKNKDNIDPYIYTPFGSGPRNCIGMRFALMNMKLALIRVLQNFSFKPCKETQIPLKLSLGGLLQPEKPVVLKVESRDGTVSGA

As for `O=C(N[C@@H](Cc1ccccc1)C(=O)N(Cc1ccccc1)Cc1ccccc1)OCc1cncs1` [N,N-dibenzyl-N-[(1,3-thiazol-5-ylmethoxy)carbonyl]-L-phenylalaninamide], the “% LPV Remaining (0.4 μM)” value is 1.9% and the “% LPV Remaining (4 μM)” value came out at 78%.
For `CC(C)CN(CC(C)C)C(=O)[C@H](Cc1ccccc1)NC(=O)OCc1cncs1` [N,N-diisobutyl-N-[(1,3-thiazol-5-ylmethoxy)carbonyl]-L-phenylalaninamide], in that order: 2% and 77%.
`O=C(NC(Cc1ccccc1)C(=O)N(CCc1ccccc1)Cc1ccccc1)OCc1cncs1` [N-benzyl-N-(2-phenylethyl)-N-[(1,3-thiazol-5-ylmethoxy)carbonyl]-L-phenylalaninamide]: the “% LPV Remaining (0.4 μM)” value stood at 1.8% and the “% LPV Remaining (4 μM)” value is on record as 83%.
